Measured values from patent US12550899B2, “Topramezone derivative and use thereof” (priority 2023, dated 2026).
Entries after “also recorded” stand apart in the source; their conditions may differ.

Assays:
Digitaria sanguinalis = test: Laboratory rainfastness test (foliar spray, simulated rainfall); assay type: in vivo; conditions: for Average fresh weight / Control efficacy: 20 days post-application; for Rainfastness compared with Topramezone (in words): in vivo
Method: Refer to the “Pesticides guidelines for laboratory bioactivity tests Part 4: Foliar spray application test for herbicide activity, NY/T 1155.4-2006”.
(§1) The soil used for the test was a mixture of surface 20 cm loam and vermiculite, mixed in a volume ratio of 3:1 to form a culture soil. The test weeds were cultured in a glass greenhouse with a temperature ranging from 25° C. to 35° C. and under natural light.
(§2) A measured quantity of Digitaria sanguinalis seeds were sown in plastic pots with a diameter of 9 cm, and covered with 1-2 mm of soil. The ports were then placed in enamel trays filled with water, and watered by bottom irrigation. After the water seeped to the soil surface, the pots were transferred to the glass greenhouse for standby.
(§3) Five dosages were set for Compound I, Compound II and the control herbicide Topramezone, which were 3.75, 7.5, 15, 30 and 60 grams of active ingredient per hectare respectively. In addition, a blank control was also prepared.
(§4) The required amount of the herbicide was accurately measured out and directly added with water, which was diluted to the required dosage by using the serial dilution method for standby.
(§5) The test was conducted on Digitaria sanguinalis at the two-leaf and one-heart stage, with the stems and leaves both sprayed uniformly. The ASS-4 automatic control spraying system with a fan-shaped nozzle was used indoors for herbicide application. Depending on the nozzle pressure and flow rate, 50 mL of herbicide solution was applied to a spraying area of 1.1 m^2 (which was equivalent to the water consumption of 30 L per mu). The system's operating speed was calibrated. The plastic pots to be treated were arranged evenly on the spraying platform to ensure uniform treatment. The spray pressure was set to 0.35 MPa, and the flow rate of the fan-shaped nozzle was set to 800 mL/min. The spraying was carried out in sequence from the low dosage to the high dosage. Each treatment was repeated four times.
The rainfastness test was set as follows: at 0.5 hours, 1.0 hour, 3.0 hours, and 6.0 hours after the application of the herbicide, the weeds that have already been sprayed with the herbicide were subjected to stem and leaf showering with a specific shower equipment simulating rainfall. Weeds that were not subjected to the showering treatment served as the control group.
(§6) The damage symptoms of the weeds (such as growth inhibition, chlorosis, malformation, etc.) were carefully recorded at 3, 7, 10, and 20 days after herbicide application. A visual comparison of the herbicide effectiveness was made after simulated rainfall at different time intervals. At 20 days post-application, the fresh weight of the aboveground parts of the weeds from each treatment group was measured, and the fresh weight control efficacy was calculated.
The treatment results were calculated according to the following formula: weed fresh weight control efficacy (%)=(control fresh weight−treatment fresh weight)/control fresh weight×100. A DPS statistical software was used to conduct regression analysis on the logarithmic values of the herbicide dosage and the probit values of the weed fresh weight control efficacy, and the correlation coefficient, GR50, GR90, and the 95% confidence interval were calculated.

[1] = tested on: grassy weeds and broadleaf weeds; test: Laboratory bioactivity efficacy test 2.2, visual observation of weeds; assay type: in vivo
Method: • grassy weeds: Digitaria sanguinalis, Eleusine indica, Echinochloa crusgalli; • Broadleaf weeds: Portulaca oleracea, Abutilon theophrasti medicus. 2.2.2 Test Conditions
as §1
as §2, with “Quantified seeds” for “A measured quantity”, “sanguinalis, Eleusine indica, Echinochloa crusgalli, Portulaca oleracea, and Abutilon theophrasti medicus” for “sanguinalis seeds”
as §3, §4
as §5, with “grassy weeds” for “Digitaria sanguinalis”, “one-heart stage, Abutilon theophrasti medicus at the 2-true-leaf stage, and Portulaca oleracea at the 3-5-leaf” for “one-heart”, “repeated two to” for “repeated”
The herbicide was applied once. After spraying, the pots were air-dried for one day and then placed in the glass greenhouse. Regular watering was conducted to maintain moisture.
as §6, with “made.” for “made after simulated rainfall at different time intervals.”

[2] = No spraying (no simulated rainfall), dosage 3.75 g/hectare
[3] = No spraying (no simulated rainfall), dosage 7.5 g/hectare
[4] = No spraying (no simulated rainfall), dosage 15 g/hectare
[5] = No spraying (no simulated rainfall), dosage 30 g/hectare
[6] = No spraying (no simulated rainfall), dosage 60 g/hectare
[7] = Spraying water 0.5 hour after herbicide application, dosage 3.75 g/hectare
[8] = Spraying water 0.5 hour after herbicide application, dosage 7.5 g/hectare
[9] = Spraying water 0.5 hour after herbicide application, dosage 15 g/hectare
[10] = Spraying water 0.5 hour after herbicide application, dosage 30 g/hectare
[11] = Spraying water 0.5 hour after herbicide application, dosage 60 g/hectare
[12] = Spraying water 1.0 hour after herbicide application, dosage 3.75 g/hectare
[13] = Spraying water 1.0 hour after herbicide application, dosage 7.5 g/hectare
[14] = Spraying water 1.0 hour after herbicide application, dosage 15 g/hectare
[15] = Spraying water 1.0 hour after herbicide application, dosage 30 g/hectare
[16] = Spraying water 1.0 hour after herbicide application, dosage 60 g/hectare
[17] = Spraying water 3.0 hour after herbicide application, dosage 3.75 g/hectare
[18] = Spraying water 3.0 hour after herbicide application, dosage 7.5 g/hectare
[19] = Spraying water 3.0 hour after herbicide application, dosage 15 g/hectare
[20] = Spraying water 3.0 hour after herbicide application, dosage 30 g/hectare
[21] = Spraying water 3.0 hour after herbicide application, dosage 60 g/hectare
[22] = Spraying water 6.0 hour after herbicide application, dosage 3.75 g/hectare
[23] = Spraying water 6.0 hour after herbicide application, dosage 7.5 g/hectare
[24] = Spraying water 6.0 hour after herbicide application, dosage 15 g/hectare
[25] = Spraying water 6.0 hour after herbicide application, dosage 30 g/hectare
[26] = Spraying water 6.0 hour after herbicide application, dosage 60 g/hectare
[27] = rain 0.5 h, 1.0 h and 3.0 h after application
[28] = 3 to 7 days after application, grassy weeds and broadleaf weeds like Portulaca oleracea

COC(=O)OC(C)Oc1c(C(=O)c2ccc(S(C)(=O)=O)c(C3=NOCC3)c2C)cnn1C (stereo not shown) [Compound I, 1-((4-(3-(4,5-dihydroisoxazol-3-yl)-2-methyl-4-(methylsulfonyl)benzoyl)-1-methyl-1H-pyrazol-5-yl)oxy)ethyl methyl carbonate]
Average fresh weight (Digitaria sanguinalis; [2]): 6.3 g | Control efficacy (Digitaria sanguinalis; [2]): 3.1% | Average fresh weight (Digitaria sanguinalis; [3]): 5.1 g | Control efficacy (Digitaria sanguinalis; [3]): 21.8% | Average fresh weight (Digitaria sanguinalis; [4]): 3.2 g | Control efficacy (Digitaria sanguinalis; [4]): 50.6% | Average fresh weight (Digitaria sanguinalis; [5]): 2.6 g | Control efficacy (Digitaria sanguinalis; [5]): 60.5% | Average fresh weight (Digitaria sanguinalis; [6]): 1.1 g | Control efficacy (Digitaria sanguinalis; [6]): 82.8% | Average fresh weight (Digitaria sanguinalis; [7]): 6.1 g | Control efficacy (Digitaria sanguinalis; [7]): 6.9% | Average fresh weight (Digitaria sanguinalis; [8]): 5.1 g | Control efficacy (Digitaria sanguinalis; [8]): 22.2% | Average fresh weight (Digitaria sanguinalis; [9]): 3.6 g | Control efficacy (Digitaria sanguinalis; [9]): 45.6% | Average fresh weight (Digitaria sanguinalis; [10]): 2.6 g | Control efficacy (Digitaria sanguinalis; [10]): 60.9% | Average fresh weight (Digitaria sanguinalis; [11]): 1.1 g | Control efficacy (Digitaria sanguinalis; [11]): 82.8% | Average fresh weight (Digitaria sanguinalis; [12]): 6.1 g | Control efficacy (Digitaria sanguinalis; [12]): 7.3% | Average fresh weight (Digitaria sanguinalis; [13]): 5.2 g | Control efficacy (Digitaria sanguinalis; [13]): 21.1% | Average fresh weight (Digitaria sanguinalis; [14]): 3.9 g | Control efficacy (Digitaria sanguinalis; [14]): 41.0% | Average fresh weight (Digitaria sanguinalis; [15]): 2.3 g | Control efficacy (Digitaria sanguinalis; [15]): 64.8% | Average fresh weight (Digitaria sanguinalis; [16]): 0.9 g | Control efficacy (Digitaria sanguinalis; [16]): 86.6% | Average fresh weight (Digitaria sanguinalis; [17]): 5.6 g | Control efficacy (Digitaria sanguinalis; [17]): 14.9% | Average fresh weight (Digitaria sanguinalis; [18]): 4.7 g | Control efficacy (Digitaria sanguinalis; [18]): 28.7% | Average fresh weight (Digitaria sanguinalis; [19]): 3.3 g | Control efficacy (Digitaria sanguinalis; [19]): 50.2% | Average fresh weight (Digitaria sanguinalis; [20]): 2.7 g | Control efficacy (Digitaria sanguinalis; [20]): 58.2% | Average fresh weight (Digitaria sanguinalis; [21]): 0.9 g | Control efficacy (Digitaria sanguinalis; [21]): 86.6% | Average fresh weight (Digitaria sanguinalis; [22]): 6.0 g | Control efficacy (Digitaria sanguinalis; [22]): 8.4% | Average fresh weight (Digitaria sanguinalis; [23]): 5.0 g | Control efficacy (Digitaria sanguinalis; [23]): 23.4% | Average fresh weight (Digitaria sanguinalis; [24]): 2.7 g | Control efficacy (Digitaria sanguinalis; [24]): 58.6% | Average fresh weight (Digitaria sanguinalis; [25]): 2.3 g | Control efficacy (Digitaria sanguinalis; [25]): 64.4% | Average fresh weight (Digitaria sanguinalis; [26]): 1.1 g | Control efficacy (Digitaria sanguinalis; [26]): 82.8% | Rainfastness compared with Topramezone (in words) (Digitaria sanguinalis): significantly better rainfastness | Effect of rain on control efficacy (in words) (Digitaria sanguinalis; [27]): remained stable | Effect of rain on control efficacy (in words) (Digitaria sanguinalis; rain 0.5 h after application): little impact; also recorded: almost unaffected | Visual observation of weeds [1, 28]: gradually became whitened and withered | Visual observation of weeds ([1]; 10 days after application): excellent treatment effects | Visual observation of weeds ([1]; 20 days after application): dried up and died

Cc1c(C(=O)c2cnn(C)c2OC(=O)C(C)(C)C)ccc(S(C)(=O)=O)c1C1=NOCC1 [Compound II, 4-(3-(4,5-dihydroisoxazol-3-yl)-2-methyl-4-(methylsulfonyl)benzoyl)-1-methyl-1H-pyrazol-5-yl pivalate]
Average fresh weight (Digitaria sanguinalis; [2]): 6.0 g | Control efficacy (Digitaria sanguinalis; [2]): 8.8% | Average fresh weight (Digitaria sanguinalis; [3]): 4.7 g | Control efficacy (Digitaria sanguinalis; [3]): 28.7% | Average fresh weight (Digitaria sanguinalis; [4]): 3.4 g | Control efficacy (Digitaria sanguinalis; [4]): 47.9% | Average fresh weight (Digitaria sanguinalis; [5]): 2.3 g | Control efficacy (Digitaria sanguinalis; [5]): 64.4% | Average fresh weight (Digitaria sanguinalis; [6]): 1.0 g | Control efficacy (Digitaria sanguinalis; [6]): 84.7% | Average fresh weight (Digitaria sanguinalis; [7]): 6.2 g | Control efficacy (Digitaria sanguinalis; [7]): 5.7% | Average fresh weight (Digitaria sanguinalis; [8]): 4.6 g | Control efficacy (Digitaria sanguinalis; [8]): 29.1% | Average fresh weight (Digitaria sanguinalis; [9]): 3.6 g | Control efficacy (Digitaria sanguinalis; [9]): 45.2% | Average fresh weight (Digitaria sanguinalis; [10]): 2.5 g | Control efficacy (Digitaria sanguinalis; [10]): 62.1% | Average fresh weight (Digitaria sanguinalis; [11]): 0.6 g | Control efficacy (Digitaria sanguinalis; [11]): 90.8% | Average fresh weight (Digitaria sanguinalis; [12]): 5.9 g | Control efficacy (Digitaria sanguinalis; [12]): 10.0% | Average fresh weight (Digitaria sanguinalis; [13]): 5.3 g | Control efficacy (Digitaria sanguinalis; [13]): 18.8% | Average fresh weight (Digitaria sanguinalis; [14]): 3.3 g | Control efficacy (Digitaria sanguinalis; [14]): 49.0% | Average fresh weight (Digitaria sanguinalis; [15]): 2.4 g | Control efficacy (Digitaria sanguinalis; [15]): 64.0% | Average fresh weight (Digitaria sanguinalis; [16]): 0.8 g | Control efficacy (Digitaria sanguinalis; [16]): 88.5% | Average fresh weight (Digitaria sanguinalis; [17]): 6.0 g | Control efficacy (Digitaria sanguinalis; [17]): 8.8% | Average fresh weight (Digitaria sanguinalis; [18]): 5.1 g | Control efficacy (Digitaria sanguinalis; [18]): 22.2% | Average fresh weight (Digitaria sanguinalis; [19]): 3.9 g | Control efficacy (Digitaria sanguinalis; [19]): 40.6% | Average fresh weight (Digitaria sanguinalis; [20]): 2.0 g | Control efficacy (Digitaria sanguinalis; [20]): 70.1% | Average fresh weight (Digitaria sanguinalis; [21]): 1.0 g | Control efficacy (Digitaria sanguinalis; [21]): 84.7% | Average fresh weight (Digitaria sanguinalis; [22]): 6.1 g | Control efficacy (Digitaria sanguinalis; [22]): 6.5% | Average fresh weight (Digitaria sanguinalis; [23]): 4.7 g | Control efficacy (Digitaria sanguinalis; [23]): 27.6% | Average fresh weight (Digitaria sanguinalis; [24]): 3.6 g | Control efficacy (Digitaria sanguinalis; [24]): 44.8% | Average fresh weight (Digitaria sanguinalis; [25]): 2.2 g | Control efficacy (Digitaria sanguinalis; [25]): 66.7% | Average fresh weight (Digitaria sanguinalis; [26]): 0.8 g | Control efficacy (Digitaria sanguinalis; [26]): 87.4% | Rainfastness compared with Topramezone (in words) (Digitaria sanguinalis): significantly better rainfastness | Effect of rain on control efficacy (in words) (Digitaria sanguinalis; [27]): remained stable | Effect of rain on control efficacy (in words) (Digitaria sanguinalis; rain 0.5 h after application): little impact; also recorded: almost unaffected | Visual observation of weeds [1, 28]: gradually became whitened and withered | Visual observation of weeds ([1]; 10 days after application): excellent treatment effects | Visual observation of weeds ([1]; 20 days after application): dried up and died
